Results published in US5108930A, “Aminoguanidine assay and applications thereof” (Alteon Inc., priority 1990, dated 1992).
Entries after “also recorded” stand apart in the source; their conditions may differ. Read-outs that look alike come from different tables or passages of the source.

Columns and labels:
histamine = settings: human pregnancy (title of cited paper); cited from earlier work
[1] = elimination half-life of aminoguanidine in plasma of patients (HPLC assay) for measurement of kidney function; assay type: in vivo, human; settings: 300 mg oral aminoguanidine hydrochloride; for half-life: human, plasma, po, 300 mg, plasma at 10, 14, 18 hours, read-out: AG T1/2 (converted)
Protocol: A) A single 300 mg dose of aminoguanidine hydrochloride is administered to the patient. Administration may be either by a capsule or tablet taken orally, or by a liquid syrup, elixir or the like.
B) After administration of the aminoguanidine or analog material, periodic collection of plasma samples is then conducted. For example, minimum 3 ml blood samples may be collected, and in the instance where aminoguanidine is administered in dry form as in a pill, the first sample may be taken 10 hours after ingestion, the second sample may be taken 14 hours after ingestion, and the third sample may be taken 18 hours after ingestion. In the instance where a liquid is administered, a similar regimen may be observed.
C) The samples collected at the intervals indicated may then be processed in accordance with the method of the present invention to determine aminoguanidine concentration.
D) Thereafter, the elimination half-life (T1/2) may be determined. Particularly, the data may be interpreted and determined by reference to the relationship wherein the slope of the logarithmic decline of plasma concentration over time is identified as the elimination rate (Kelim). Elimination half-life (T1/2) is related to Kelim by the following equation: [formula]
To a 0.5 mL plasma sample was added 0.5 mL of the working internal standard solution (10 μg/mL N-ethyl aminoguanidine tosylate in 7.5% trichloracetic acid). After vortexing (10 sec.) and centrifugation in a microfuge (Eppendorf, 14,000 rpm, 10 min.), the supernatant was decanted into a clean screw top culture tube containing 0.1 mL of an aqueous (10 mg/mL) solution of reacting agent (6-methyl-2-pyridine-carboxaldehyde). The sample was then capped tightly and reacted in a heating block (95°-100° C.) for 10 minutes. After cooling, i the sample was transferred into an HPLC vial, from which a 200 μL aliquot was injected for HPLC analysis.
A Waters Associates Model 510 pump was utilized with a radial compression column (Waters Novapak CN, 8 mm ×10 cm, 4 μm particle size) and a cyano (Waters Resolve Guard-Pak CN) precolumn. Detection was performed using a variable ultraviolet detector (Waters 484) at 302 nm. The mobile phase consisted of (volume to volume) 15% acetonitrile: 10% methanol: 75% of 0.01 M each of 1heptanesulfonic acid and sodium phosphate monobasic. Flow rate was maintained isocratically at 2.0 mL/min. at ambient temperature. Sequential automatic injections were made via a programmable sampler (Waters WISP 712).
All data acquisitions were performed with a Waters Maxima 820 system. A linear test squares analysis of the ratios of drug peak height to internal standard peak height versus concentrations added to human plasma in standards constituted daily instrumentation standardization. Interpolation from the linear regression line determined concentrations of aminoguanidine in quality control and unknown assayed samples
[…] After administration of this total dosage, plasma samples were collected from each of the patients at intervals of 10 hours, 14 hours and 18 hours after administration. The plasma samples were then taken and subjected to the assay of the present invention, in accordance with the protocol utilized in Example 1.
Accordingly, the samples were first combined with a quantity of a working internal standard solution of N-ethyl aminoguanidine tosylate in 7.5 percent trichloroacetic acid. The resulting samples were vortexed for 10 seconds and centrifuged for a period of 10 minutes at a speed of 14,000 rpm. The supernatants were then decanted into a culture tube containing 0 1 ml of an aqueous solution ([…]) of 6-methyl picolinaldehyde. The samples were then tightly capped and reacted in a heating block for a period of 10 minutes, and after cooling, were transferred into HPLC vials from which aliquots were then injected for HPLC analysis.
A radial compression chromatographic column was utilized with an isocratic flow rate and under paired-ion conditions. […]

histaminase = settings: cited from earlier work
diamine oxidase = settings: cited from earlier work
[2] = test system: glucose-mediated cross-linking of proteins; settings: cited from earlier work

N=C(N)NN [aminoguanidine]
levels of histamine (histamine): increase levels of histamine
relationship between aminoguanidine half-life and kidney function (GFR), in words [1]: fairly consistent and linear relationship; also recorded: excellent linear correlation; also recorded: inverse relationship
correlation coefficient r of aminoguanidine T1/2 with GFR ([1]; n=18): 0.875
half-life ([1]; patient 1, GFR 12.8): 24.6 h
half-life ([1]; patient 2, GFR 52.4): 14.2 h
half-life ([1]; patient 3, GFR 116.3): 3.83 h
half-life ([1]; patient 4, GFR 44.1): 21.8 h
half-life ([1]; patient 5, GFR 31.1): 19 h
half-life ([1]; patient 6, GFR 80.5): 6.78 h
half-life ([1]; patient 7, GFR 26.7): 14.8 h
half-life ([1]; patient 8, GFR 12.1): 24.9 h
half-life ([1]; patient 9, GFR 117.2): 4.73 h
half-life ([1]; patient 10, GFR 148.9): 3.94 h
half-life ([1]; patient 11, GFR 111.9): 6.82 h
half-life ([1]; patient 12, GFR 103.8): 6.08 h
half-life ([1]; patient 13, GFR 41.6): 14.9 h
half-life ([1]; patient 14, GFR 39.2): 9.54 h
half-life ([1]; patient 15, GFR 113.2): 4.81 h
half-life ([1]; patient 16, GFR 82.2): 6.03 h
half-life ([1]; patient 18, GFR 131.3): 7.05 h
half-life ([1]; patient 19, GFR 131.1): 6.46 h
inhibitory action on the enzyme histaminase (histaminase): inhibitory action
inhibition of diamine oxidase (diamine oxidase): selective inhibitor
inhibition of glucose-mediated cross-linking of proteins [2]: inhibitor of glucose-mediated cross-linking of proteins
